Measured values published in the supplement of paper PMC11208160.

Assay: recombinant UMI read abundance after kanamycin selection (control-corrected) (log10(CPM+1)); higher = more efficient recombination; extreme values may be limits of the assay; sequences stand for … in AGTGCAGAGAAAATCGGCCAGTTTTCTCTGCCTGCAGTCCGCATGCCGTGGGACCCCTTGGGTTCTAACCTGTTGCCTAGATTTATGCAGCGGACTGCCTTTCTCCCAAAGTGATAAACCGG…AGGTTGGTTTCACT; site = the 11-nt donor
Summary of the method: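 Sequencing read counts were converted to CPM, averaged over two replicates and scaled by control-derived factors. Results are given as log10(CPM+1). The reads covered the donor–target junction of recombinant UMIs from a pooled Escherichia coli screen of donor and donor-binding-loop pairs for the IS621 bridge recombinase.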
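Note: IS621 bridge recombinase in Escherichia coli cells against a fixed T5 target plasmid.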

Row | Sequence | recombinant UMI read abundance (log10)
1 | AGCATTCCATGGACCGGTTTTCCCGGTAATCCGTATTTGTC (site AGCATTCCTGA) | 0
2 | AGCCAAGCATGGACCGGTTTTCCCGGTAATCCGTATTTGTT (site AGCCAAGCTAA) | 1.09
3 | AGCCAAGCATGGACCGGTTTTCCCGGTAATCCGTATTTGTT (site AGCCCAGCTAA) | 0.0145
4 | AGCCAAGCATGGACCGGTTTTCCCGGTAATCCGTATTTGTT (site AGCCGAGCTAA) | 0.00778
5 | AGCCAAGCATGGACCGGTTTTCCCGGTAATCCGTATTTGTT (site AGCCTAGCTAA) | 0.0061
6 | AGCCCAGCATGGACCGGTTTTCCCGGTAATCCGTATTTGGG (site AGCACAGCTCC) | 0.0163
7 | AGCCCAGCATGGACCGGTTTTCCCGGTAATCCGTATTTGGG (site AGCCCAGCTCC) | 0.35
8 | AGCCCAGCATGGACCGGTTTTCCCGGTAATCCGTATTTGGG (site AGCGCAGCTCC) | 0.0133
9 | AGCCCAGCATGGACCGGTTTTCCCGGTAATCCGTATTTGGG (site AGCTCAGCTCC) | 0.0182
10 | AGCCTAACATGGACCGGTTTTCCCGGTAATCCGTATTTGCT (site AGCCTAACTAG) | 0
11 | AGCCTACCATGGACCGGTTTTCCCGGTAATCCGTATTTGTT (site AGCCTAACTAA) | 0
12 | AGCCTACCATGGACCGGTTTTCCCGGTAATCCGTATTTGTT (site AGCCTACCTAA) | 0.0133
13 | AGCCTACCATGGACCGGTTTTCCCGGTAATCCGTATTTGTT (site AGCCTAGCTAA) | 0.00248
14 | AGCCTACCATGGACCGGTTTTCCCGGTAATCCGTATTTGTT (site AGCCTATCTAA) | 0.00614
15 | AGCCTAGCATGGACCGGTTTTCCCGGTAATCCGTATTTGAT (site AGCCTAGCTAA) | 0.0122
16 | AGCCTAGCATGGACCGGTTTTCCCGGTAATCCGTATTTGAT (site AGCCTAGCTAC) | 0.0164
17 | AGCCTAGCATGGACCGGTTTTCCCGGTAATCCGTATTTGAT (site AGCCTAGCTAG) | 0
18 | AGCCTAGCATGGACCGGTTTTCCCGGTAATCCGTATTTGAT (site AGCCTAGCTAT) | 0.0107
19 | AGCCTAGCATGGACCGGTTTTCCCGGTAATCCGTATTTGTA (site AGCCTAGCTAA) | 0.0136
20 | AGCCTAGCATGGACCGGTTTTCCCGGTAATCCGTATTTGTA (site AGCCTAGCTCA) | 0.0462
21 | AGCCTAGCATGGACCGGTTTTCCCGGTAATCCGTATTTGTA (site AGCCTAGCTGA) | 0
22 | AGCCTAGCATGGACCGGTTTTCCCGGTAATCCGTATTTGTA (site AGCCTAGCTTA) | 0.245
23 | AGCCTAGCATGGACCGGTTTTCCCGGTAATCCGTATTTGTC (site AGCCTAGCTAA) | 0.199
24 | AGCCTAGCATGGACCGGTTTTCCCGGTAATCCGTATTTGTC (site AGCCTAGCTCA) | 0.0312
25 | AGCCTAGCATGGACCGGTTTTCCCGGTAATCCGTATTTGTC (site AGCCTAGCTGA) | 0

Row | Sequence | recombinant UMI read abundance (log10)
26 | AGCCTAGCATGGACCGGTTTTCCCGGTAATCCGTATTTGTC (site AGCCTAGCTTA) | 0.0185
27 | AGCCTATCATGGACCGGTTTTCCCGGTAATCCGTATTTGAC (site AGCCTATCTGT) | 0.685
28 | AGCCTATCATGGACCGGTTTTCCCGGTAATCCGTATTTGAC (site AGCCTCTCTGT) | 0
29 | AGCCTATCATGGACCGGTTTTCCCGGTAATCCGTATTTGAC (site AGCCTGTCTGT) | 0
30 | AGCCTATCATGGACCGGTTTTCCCGGTAATCCGTATTTGAC (site AGCCTTTCTGT) | 0
31 | AGCCTTTCATGGACCGGTTTTCCCGGTAATCCGTATTTGAT (site AGCCTTTCTAT) | 0
32 | AGCCTTTCATGGACCGGTTTTCCCGGTAATCCGTATTTGAT (site AGCCTTTCTCT) | 0
33 | AGCCTTTCATGGACCGGTTTTCCCGGTAATCCGTATTTGAT (site AGCCTTTCTGT) | 0
34 | AGCCTTTCATGGACCGGTTTTCCCGGTAATCCGTATTTGAT (site AGCCTTTCTTT) | 0
35 | AGCGCGACATGGACCGGTTTTCCCGGTAATCCGTATTTGTG (site AGCGCGACTCA) | 0.829
36 | AGCGCTCCATGGACCGGTTTTCCCGGTAATCCGTATTTGCC (site AGCGCTCCTGG) | 0
37 | AGCGGCTCATGGACCGGTTTTCCCGGTAATCCGTATTTGGG (site AGCGGCTCTCC) | 0.204
38 | AGCTAAGCATGGACCGGTTTTCCCGGTAATCCGTATTTGGG (site AGCTAAGCTCC) | 0.00725
39 | AGCTAAGCATGGACCGGTTTTCCCGGTAATCCGTATTTGGG (site AGCTCAGCTCC) | 0.0056
40 | AGCTAAGCATGGACCGGTTTTCCCGGTAATCCGTATTTGGG (site AGCTGAGCTCC) | 0.0394
41 | AGCTAAGCATGGACCGGTTTTCCCGGTAATCCGTATTTGGG (site AGCTTAGCTCC) | 0.117
42 | AGCTACGCATGGACCGGTTTTCCCGGTAATCCGTATTTGAA (site AGCTACGCTTT) | 1.7
43 | AGCTAGCCATGGACCGGTTTTCCCGGTAATCCGTATTTGGA (site AGCTAGCCTTC) | 0.00495
44 | AGCTAGGCATGGACCGGTTTTCCCGGTAATCCGTATTTGGT (site AGCTAGGCTAC) | 0.659
45 | AGCTAGGCATGGACCGGTTTTCCCGGTAATCCGTATTTGGT (site CGCTAGGCTAC) | 0.00222
46 | AGCTAGGCATGGACCGGTTTTCCCGGTAATCCGTATTTGGT (site GGCTAGGCTAC) | 0.0154
47 | AGCTAGGCATGGACCGGTTTTCCCGGTAATCCGTATTTGGT (site TGCTAGGCTAC) | 0.0219
48 | AGCTCACCATGGACCGGTTTTCCCGGTAATCCGTATTTGGG (site AGCTCAACTCC) | 0.0175
49 | AGCTCACCATGGACCGGTTTTCCCGGTAATCCGTATTTGGG (site AGCTCACCTCC) | 0.0182
50 | AGCTCACCATGGACCGGTTTTCCCGGTAATCCGTATTTGGG (site AGCTCAGCTCC) | 0.0165

Row | Sequence | recombinant UMI read abundance (log10)
51 | AGCTCACCATGGACCGGTTTTCCCGGTAATCCGTATTTGGG (site AGCTCATCTCC) | 0
52 | AGCTCAGCATGGACCGGTTTTCCCGGTAATCCGTATTTGAG (site AGCTCAGCTCA) | 0.0132
53 | AGCTCAGCATGGACCGGTTTTCCCGGTAATCCGTATTTGAG (site AGCTCAGCTCC) | 0.026
54 | AGCTCAGCATGGACCGGTTTTCCCGGTAATCCGTATTTGAG (site AGCTCAGCTCG) | 0
55 | AGCTCAGCATGGACCGGTTTTCCCGGTAATCCGTATTTGAG (site AGCTCAGCTCT) | 1.33
56 | AGCTCAGCATGGACCGGTTTTCCCGGTAATCCGTATTTGGA (site AGCTCAGCTAC) | 0.00904
57 | AGCTCAGCATGGACCGGTTTTCCCGGTAATCCGTATTTGGA (site AGCTCAGCTCC) | 0.264
58 | AGCTCAGCATGGACCGGTTTTCCCGGTAATCCGTATTTGGA (site AGCTCAGCTGC) | 0
59 | AGCTCAGCATGGACCGGTTTTCCCGGTAATCCGTATTTGGA (site AGCTCAGCTTC) | 1.03
60 | AGCTCAGCATGGACCGGTTTTCCCGGTAATCCGTATTTGTG (site AGCTCAGCTCA) | 0.506
61 | AGCTCAGCATGGACCGGTTTTCCCGGTAATCCGTATTTGTG (site AGCTCAGCTCC) | 0.00732
62 | AGCTCAGCATGGACCGGTTTTCCCGGTAATCCGTATTTGTG (site AGCTCAGCTCG) | 0
63 | AGCTCAGCATGGACCGGTTTTCCCGGTAATCCGTATTTGTG (site AGCTCAGCTCT) | 0.362
64 | AGCTCGACATGGACCGGTTTTCCCGGTAATCCGTATTTGGC (site AGCTCGACTGC) | 1.31
65 | AGCTCTGCATGGACCGGTTTTCCCGGTAATCCGTATTTGGG (site AGCTCAGCTCC) | 0.0199
66 | AGCTCTGCATGGACCGGTTTTCCCGGTAATCCGTATTTGGG (site AGCTCCGCTCC) | 0.0101
67 | AGCTCTGCATGGACCGGTTTTCCCGGTAATCCGTATTTGGG (site AGCTCGGCTCC) | 0
68 | AGCTCTGCATGGACCGGTTTTCCCGGTAATCCGTATTTGGG (site AGCTCTGCTCC) | 0.25
69 | AGCTTAGCATGGACCGGTTTTCCCGGTAATCCGTATTTGTT (site AGCATAGCTAA) | 0.00999
70 | AGCTTAGCATGGACCGGTTTTCCCGGTAATCCGTATTTGTT (site AGCCTAGCTAA) | 0.261
71 | AGCTTAGCATGGACCGGTTTTCCCGGTAATCCGTATTTGTT (site AGCGTAGCTAA) | 0.0147
72 | AGCTTAGCATGGACCGGTTTTCCCGGTAATCCGTATTTGTT (site AGCTTAGCTAA) | 0.0106
73 | AGCTTCCCATGGACCGGTTTTCCCGGTAATCCGTATTTGGG (site AGCTTCCCTCC) | 0.0229
74 | AGCTTGCCATGGACCGGTTTTCCCGGTAATCCGTATTTGAT (site AGCTTGCCTAT) | 0.0115
75 | AGGAAGACATGGACCGGTTTTCCCGGTAATCCGTATTTGAC (site AGGAAGACTGT) | 2.64
